Results: ChEMBL document CHEMBL5042506, “Discovery of Orally Available Retinoic Acid Receptor-Related Orphan Receptor γ-t/Dihydroorotate Dehydrogenase Dual Inhibitors for the Treatment of Refractory Inflammatory Bowel Disease” (J Med Chem, 2022)

How the values were obtained:
Format in all cases: ADME, organism-based
[1] = AUC (0 to last) in ICR mouse at 5 mg/kg, po measured over 24 hrs by LC-MS/MS analysis; design: route oral, dose 5 mg/kg, time >24; settings: in vivo
[2] = Volume of distribution at steady state in ICR mouse at 1 mg/kg, iv measured over 24 hrs by LC-MS/MS analysis; settings: in vivo, read-out: Vdss
[3] = Cmax in ICR mouse at 1 mg/kg, iv measured over 24 hrs by LC-MS/MS analysis; design: route intravenous, dose 1 mg/kg, time >24; settings: in vivo
[4] = AUC (0 to last) in ICR mouse at 1 mg/kg, iv measured over 24 hrs by LC-MS/MS analysis; design: route intravenous, dose 1 mg/kg, time >24; settings: in vivo
[5] = Clearance in ICR mouse at 1 mg/kg, iv measured over 24 hrs by LC-MS/MS analysis; settings: in vivo
[6] = Cmax in ICR mouse at 5 mg/kg, po measured over 24 hrs by LC-MS/MS analysis; design: route oral, dose 5 mg/kg, time >24; settings: in vivo
[7] = Oral bioavailability in ICR mouse at 5 mg/kg measured over 24 hrs by LC-MS/MS analysis; settings: in vivo

## Cc1c(Nc2nc3c(s2)CCCC3O)cc(Cl)cc1OC1CCN(C(=O)CC(C(F)(F)F)C(F)(F)F)CC1 (racemic)
[1]
  AUC(0-t) at 24 h: 599 ng·h/mL
[2]
  Vd: 2.95 L/kg
[3]
  Cmax: 590 ng/mL
[4]
  AUC(0-t) at 24 h: 634 ng·h/mL
[5]
  clearance: 26.6 mL/min/kg
[6]
  Cmax: 213 ng/mL
[7]
  bioavailability: 18.9%
